In US20230173090A1, “COMPOSITIONS AND METHODS FOR MODULATING DOPAMINE RECEPTOR ACTIVITY” (The Regents of the University of California, priority 2020, published 2023):

Tests used:
D1R = target: T1, D1R (Homo sapiens, UniProt P21728); experiment: D1R-mediated GIRK channel activation assay in HEK293T cells (whole-cell electrophysiology); type: cell-based
T1 construct: expressed in transfected cells; host or cells: HEK293T (A1, A2); HEK293 (A26)
Description: All constructs were cloned into mammalian expression vectors. For the receptor mediated-GIRK activation assay, HEK293T cells were seeded onto 18 mm coverslips and transiently transfected overnight with Lipofectamine 2000 and the following constructs: a receptor, a variant of the membrane-anchor (M; 0.7 µg), GIRK1(F137S) (0.7 µg), and tdTomato (0.2 µg). […] D1R, D5R, or opto-D1R were cotransfected with Gαis13 (0.35 µg), D3R with GαoA (0.7 µg), and M1R or mGluR1 with Gαiq5. Transfected cells were used for electrophysiology, imaging, or flow cytometry experiments.
HEK293T cells were sparsely seeded and maintained in DMEM (Invitrogen) with 10% fetal bovine serum on poly-L-lysine-coated coverslips at 37° C. and 5% CO2. HEK293T cells were voltage clamped in whole-cell configuration 16-48 hours after transfection. […] GluK2 electrophysiology was performed in the presence of 0.3 mg/mL concanavalin A to prevent desensitization. […] Cells were voltage clamped to -60 or -80 mV using an Axopatch 200A (Molecular Devices) amplifier.
For all experiments, compounds were applied using a gravity-driven perfusion system and illumination was applied to the entire field of view using a Polychrome V monochromator (TILL Photonics) through a 20x objective (maximum 0.05 mW/mm^2 at 370 nm and 0.5 mW/mm^2 at 460 nm or 473 nm) or a DG4 (Sutter) through a 20x objective (maximum 0.06 mW/mm^2 at 370 nm and 0.6 mW/mm^2 at 445 nm). pClamp software was used for both data acquisition and control of illumination.
The selection criteria for electrophysiological experiments are that a cell (i) expresses the fluorescent protein transfection marker, and (ii) responds to agonist, indicating the presence of either receptor and GIRK or an LGIC. Cells were not excluded unless the recording was of poor quality (e.g., unstable baseline).
Data were analyzed using GraphPad Prism (GraphPad), Clampfit (Axon instruments), Origin (OriginLab), MATLAB, or ImageJ software. For dose-response curves, data were normalized to vehicle (0%) and DA (100%) and nonlinear regression analysis was performed using the sigmoidal dose-response function in GraphPad Prism. Statistical analyses were performed using GraphPad Prism. All values reported are mean ± S.E.M.
FIGS. 9A-9H. Functional properties of untethered P-D1ago. (A) Schematic representation of a D1R-mediated G protein-coupled inwardly rectifying potassium (GIRK) channel assay in HEK293T cells. Agonist-induced receptor activation results in the recruitment of a heterotrimeric G protein containing the chimeric Gα subunit (Gαis) followed by the release of Gβγ, which activates GIRK channels and enhances inward-current. […] (E) Schematic representation of a highly sensitive D1R-mediated cAMP accumulation assay in HEK293T cells. Agonist-induced D1R activation results in Gs/olfrecruitment followed by the binding of its Gα subunit to adenylate cyclase (AC), which enhances the conversion of ATP to cAMP. cAMP binds the bioluminescence resonance energy transfer 1 (BRET′)-based cAMP sensor CAMYEL^87, resulting in a conformational change in its Epac domain that increases the distance and decreases BRET^1 between the donor Renilla luciferase (Rluc) and the acceptor YFP. […] Optimization and characterization of the D1R MP

[1] = tested on: membrane-anchor (M) (SNAP-tag); experiment: Labeling of the membrane-anchor (M) at the cell surface: block of BG-Alexa647 binding, imaging and flow cytometry; type: cell-based; details: 1 µM for 1 hour, then 1.5 µM BG-Alexa647 for 30 minutes
Description: Untransfected or membrane-anchor (M) expressing HEK293T cells were labeled with 1.5 µM BG-TMR or BG-Alexa647 (NEB) for 20-30 minutes in the dark at 37° C. and 5% CO2 in a standard extracellular solution. Cells were then (i) mounted on an upright, scanning confocal microscope (Zeiss LSM 780) and imaged with a 20x objective or (ii) washed in DPBS and measured by flow cytometry (BD LSR II).
FIGS. 8A-8D. Photophysical properties of P-D1ago. (A) Absorbance spectra of P-D1ago under blue light (460 nm; blue) and UV light (370 nm; grey). (B) P-D1ago repeatedly switches from its trans to cis isomer with UV light and back to trans with blue light. […] Cells were incubated for 1 hour with vehicle (left upper panels), 1 µM surface block (left middle panels), or 1 µM P-D1ago (left lower panels), and were then labeled for 30 minutes with 1.5 µM BG-Alexa647. Cytosolic tdTomato was used as a transfection marker, grey bar = […]. A summary of labeling according to flow cytometry is shown on the right. unpaired two-sided t-test, p = 0.60. n = 3-6 replicates per condition. (D) M labeling as a function of the concentration of P-D1ago. The M was incubated for 1 hour with increasing concentrations of P-D1ago, and then labeled for 30 minutes with 1.5 µM BG-Alexa647. Labeling was measured by flow cytometry. […] Labeling was measured by flow cytometry. n = 3-4 replicates per condition. […]

intracellular SNAP-tag = target: T2, intracellular SNAP-tag (Homo sapiens, UniProt P16455, A127T/A154D/C150Q/C62A/E30R/G131K/G132T/G153L/K125A/K32I/L33F/M134L/N157G/Q115S/Q116H/R128A/R135S/S151G/S152D/S159E); experiment: Block of BG-TMRstar binding to intracellular SNAP-tag expressed in the cytosol; type: cell-based; details: 1 µM for 1 hour, then 1.5 µM BG-TMRstar for 20 minutes
T2 construct: expressed in transfected cells
T2 sequence (P16455 1-182 E30R/K32I/L33F/C62A/Q115S/Q116H/K125A/A127T/R128A/G131K/G132T/M134L/R135S/C150Q/S151G/S152D/G153L/A154D/N157G/S159E limits assumed): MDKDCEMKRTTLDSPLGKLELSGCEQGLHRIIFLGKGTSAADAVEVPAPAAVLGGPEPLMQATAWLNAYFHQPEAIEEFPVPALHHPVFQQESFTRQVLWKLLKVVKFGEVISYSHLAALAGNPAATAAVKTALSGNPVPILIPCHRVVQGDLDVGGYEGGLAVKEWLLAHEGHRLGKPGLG

dStr-dMSN D1Rs = dStr-dMSN D1Rs (Mus musculus, UniProt Q61616); experiment: Open field test, MP-D1ago in dStr-dMSNs of D1-Cre mice; details: trans-P-D1ago 100 µM, 1 µL bilateral dStr-infusion, mice expressing the M
Chain of dStr-dMSN D1Rs (Q61616 whole entry, the tested form may be a part): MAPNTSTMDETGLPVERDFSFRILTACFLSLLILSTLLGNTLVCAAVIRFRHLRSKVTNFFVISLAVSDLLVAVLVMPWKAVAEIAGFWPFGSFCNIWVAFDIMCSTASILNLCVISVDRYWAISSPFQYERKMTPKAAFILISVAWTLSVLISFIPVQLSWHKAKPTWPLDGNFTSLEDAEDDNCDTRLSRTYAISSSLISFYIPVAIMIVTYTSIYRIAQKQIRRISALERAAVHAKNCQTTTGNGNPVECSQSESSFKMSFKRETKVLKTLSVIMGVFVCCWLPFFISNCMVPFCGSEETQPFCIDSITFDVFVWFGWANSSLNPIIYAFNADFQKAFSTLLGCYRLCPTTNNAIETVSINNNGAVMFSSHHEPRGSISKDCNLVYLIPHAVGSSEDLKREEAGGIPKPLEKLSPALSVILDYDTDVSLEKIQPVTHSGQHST
Description: The mice were 20-30 grams and 8-20 weeks old. […] Mice were maintained on a 12:12 light cycle (lights on at 07:00).
The sub-second velocity traces recorded using Biobserve were smoothed in MATLAB using a first order Butterworth filter (normalized cutoff frequency ωu = 0.02). Using original code written in MATLAB, a velocity threshold was manually set to distinguish movements from tracking artifacts, as verified by visual inspection of each movie. Movement bouts were counted when the velocity surpassed this threshold and lasted for at least 0.3 seconds. Bouts were considered finished after the velocity remained below the manually defined threshold for 0.1 seconds. The percent time moving was calculated as the time that velocity was above the movement threshold divided by the time of the entire measurement. Movement initiation frequency was calculated as the number of times velocity surpassed the movement threshold per second. Movement bout duration was calculated by averaging the duration of all movement bouts that occurred during the entire measurement. Max velocity was calculated by averaging the maximum velocity of all movement bouts that occurred during the entire measurement.

T1 sequence (P21728 whole entry): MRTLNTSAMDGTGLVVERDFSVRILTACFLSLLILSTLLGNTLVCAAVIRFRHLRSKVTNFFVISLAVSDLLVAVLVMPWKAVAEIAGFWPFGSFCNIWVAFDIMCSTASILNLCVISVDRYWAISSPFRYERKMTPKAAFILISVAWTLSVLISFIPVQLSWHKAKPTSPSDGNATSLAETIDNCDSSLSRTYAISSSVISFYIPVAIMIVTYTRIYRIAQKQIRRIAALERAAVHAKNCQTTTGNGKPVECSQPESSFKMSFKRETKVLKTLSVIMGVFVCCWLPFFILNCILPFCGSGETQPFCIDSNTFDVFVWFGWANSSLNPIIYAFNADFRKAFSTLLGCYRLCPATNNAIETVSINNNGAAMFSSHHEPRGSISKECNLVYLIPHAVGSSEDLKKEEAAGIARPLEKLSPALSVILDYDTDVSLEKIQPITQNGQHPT

In the case of `CCCN(CCc1ccc(N=Nc2ccc(NC(=O)CNC(=O)CCOCCOCCOCCOCCOCCOCCOCCOCCOCCOCCOCCOCCn3cc(CCC(=O)NCc4ccc(COc5nc(N)nc6nc[nH]c56)cc4)nn3)cc2)cc1)C1CCc2c(O)cccc2C1` (centres unmarked) [P-D1ago, Benzylguanine-azobenzene-PPHT], the “effect of untethered P-D1ago on D1R in the GIRK assay” value (D1R; absence of the membrane-anchor (M), 1 µM or 10 µM, trans (blue light) or cis (UV light)) is reported as “Neither 1 µM or 10 µM P-D1ago, concentrations that fully label the M (FIG. 8D), have any effect on the receptor”, the “D1R activation by P-D1ago tethered to MEAAAK” value (D1R; tethered to MEAAAK (SEQ ID NO:16), blue light) is reported as “only partially activates D1R” and the “D1R activation in the presence of sub-saturating DA” value (D1R; tethered to MEAAAK, 100 nM and 1 µM DA) is reported as “further activated D1R”. For the same molecule, the “effect on the ability of DA to activate D1R” value (D1R; tethered to MEAAAK, saturating DA (10 µM)) was “did not diminish the ability of DA to fully activate D1R”, the “photoactivation of D1R by P-D1ago tethered to the M” value (D1R; tethered to the M, relative to a saturating concentration of DA) was “partially photoactivated with blue light (460 nm) and is deactivated with UV light (370 nm)” and the “binding to the M at the cell surface (block of BG-Alexa647 binding)” value [1] was “almost completely”. The “binding to the M at the cell surface (block of BG-Alexa647 binding)” value ([1]; listed as P-Dlago) was “binds efficiently”, the “block of BG-TMRstar binding to intracellular SNAP-tag (membrane permeation)” value (intracellular SNAP-tag) was “does not effectively prevent the binding” and the “persistence of increased motor activity” value (dStr-dMSN D1Rs) was “remained high for many hours”. For the same molecule, the “return of motor activity to baseline” value (dStr-dMSN D1Rs) was “returned to baseline over a two-day period” and the “time to increase of motor activity after start of infusion” value (dStr-dMSN D1Rs; dark) was ≤ 30 min.
